Measurements published in patent publication US20070196442A1, “Method for improving the oral administration of alpha-lipoic acid” (priority 2006, published 2007).

Key:
[1] = double-blind, randomized comparative taste-test of oral alpha-lipoic acid solutions (throat irritation, overall liking); assay type: in vivo; conditions: of seventeen subjects
[2] = background / U.S. Pat. No. 3,562,273; cited from earlier work
pH of aqueous solution = assay type: physicochemical; conditions: noted by the inventors

Row | pH of the salt (pH of aqueous solution) | SMILES | number of subjects ranking the sample as the most irritating of the three samples [1] | pH in a 0.1M aqueous solution [2]
1 |  | O=C(O)CCCC[C@@H]1CCSS1 [ALA, 5-[(3R)-dithiolan-3-yl]pentanoic acid] | fourteen | 
2 |  | NC(CO)(CO)CO [trometamol, 2-amino-2-(hydroxymethyl)propane-1,3-diol] |  | 10.4
3 | 6.5 to 7.5 | NC(CO)(CO)CO.O=C(O)CCCCC1CCSS1 (stereo not shown) [TR-ALA, tris(hydroxymethyl) amino methane thioctate] |  | 6.5
